The record followed here is article PMC10108392, “Rimonabant-Based Compounds Bearing Hydrophobic Amino Acid Derivatives as Cannabinoid Receptor Subtype 1 Ligands” (ACS Medicinal Chemistry Letters, 2023).

The assay addresses T1, CB1R (Rattus norvegicus, UniProt P20272).
T1 construct: Crude membrane fractions were prepared from the brain; from tissue; host or cells: Wistar rat whole brain, crude membrane fraction
Description: Ligand stimulated [35S]GTPγS binding assay in rat brain membranes. It counts as biochemical. The conditions noted are these: rat brain membranes.

T1 sequence (P20272 whole entry): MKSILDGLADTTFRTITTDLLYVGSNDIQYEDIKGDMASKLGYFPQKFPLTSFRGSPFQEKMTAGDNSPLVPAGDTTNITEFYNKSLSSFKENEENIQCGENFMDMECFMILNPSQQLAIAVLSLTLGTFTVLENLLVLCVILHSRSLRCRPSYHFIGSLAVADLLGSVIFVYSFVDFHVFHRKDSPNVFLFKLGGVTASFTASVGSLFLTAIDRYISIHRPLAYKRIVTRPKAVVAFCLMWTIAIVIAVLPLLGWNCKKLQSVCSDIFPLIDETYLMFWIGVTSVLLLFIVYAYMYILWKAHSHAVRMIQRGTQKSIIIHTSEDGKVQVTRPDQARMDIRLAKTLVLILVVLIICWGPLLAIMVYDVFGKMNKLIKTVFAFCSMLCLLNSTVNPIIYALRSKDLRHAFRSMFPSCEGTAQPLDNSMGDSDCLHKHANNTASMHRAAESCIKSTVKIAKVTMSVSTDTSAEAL

Broadly, the EC50 is the concentration giving half of the maximal effect. As for `CNC(=O)[C@@H](NC(=O)c1nn(-c2ccc(Cl)cc2)c(-n2cccc2)c1C)C(C)(C)C` [Compound 34, RS2691-tLeu-NHCH3], the “CB1R functional profile (agonist / antagonist / inverse agonist)” value (from [35S]GTPγS binding) is listed as “agonist”. Further, where the note is “± SEM, read-out: [35S]GTPγS stimulation EC50”, the concentration for a half-maximal effect (EC50) turned out to be 46 ± 4.1 nM.
